This note sets out measurements from paper PMC8347595, “N-Skatyltryptamines—Dual 5-HT6R/D2R Ligands with Antipsychotic and Procognitive Potential” (Molecules, 2021).

One series addresses 5-HT2AR (Homo sapiens, UniProt P28223). Description: Radioligand binding assay, [3H]-ketanserin displacement. The conditions noted are these: Table 1. Also noted: host or cells: CHO-K1; membrane preparation.
The target of series [1] is T1, D2R (Homo sapiens, UniProt P14416). Description: D2R functional assay, antagonist mode (cAMP, HEK293 cells). Type of series: cell-based. More on the design: expressed in transfected cells. On the procedure:
The supernatant was aspirated, and the cell pellet was resuspended in stimulation buffer (1 × HBSS, 5 mM HEPES, 0.5 mM IBMX, 0.1% BSA).
The functional properties of compounds were evaluated using the LANCE Ultra cAMP Detection Kit (PerkinElmer). D2 receptors in HEK293 cells are coupled to Gi subtype and decreased cAMP production. […] Each compound was tested in triplicate at eight concentrations (10^−11–10^−4 M).
For quantification of cAMP levels, cells (5 µL) were incubated with 5 µL mixture of compounds (tested ligand and forskolin with 100 nM quinpirole for antagonist binding mode) for 30 min at room temperature in 384-well white opaque microtiter plate (PerkinElmer). After incubation, the reaction was stopped and cells were lysed by the addition of 10 µL working solution (5 µL Eu-cAMP and 5 µL ULight-anti-cAMP). The assay plate was incubated for 1 h at room temperature. Time-resolved fluorescence resonance energy transfer (TR-FRET) signal was detected by an Infinite M1000 Pro (Tecan) using instrument settings from the LANCE Ultra cAMP Detection Kit manual.

For the next series, the target named is T2, CYP3A4 (Homo sapiens, UniProt P08684).
T2 construct: purchased Promega (Madison, WI, USA)
Description: CYP3A4 P450-Glo luminescent assay. As to conditions: compared to ketoconazole; 0.01 to 25 µM. Type of series: in vitro ADME. On the procedure: The experiments were provided using commercially available luminescent CYP3A4 P450-Glo™ and CYP2D6 P450-Glo™ tests purchased from Promega (Madison, WI, USA). The enzymatic reactions were conducted in polystyrene, flat-bottom Nunc™ MicroWell™ 96-well microplates (Thermo Scientific, Waltham, MA, USA). The assays were carried out according to the procedures provided by the manufacturer, as described previously. Compounds were tested in triplicate at the final concentrations in a range from 0.01 to 25 µM for both isoforms of CYP450. The references of CYP3A4 and CYP2D6 inhibitors (ketoconazole and quinidine, respectively) were tested in a range from 0.001 to 10 µM. Tested compounds were incubated in 100 mM Tris-HCl buffer separately with CYP3A4 and CYP2D6 membranes and the NADPH Regeneration System for 30 min at room temperature in triplicate. The bioluminescent signal was measured after the addition of the Luciferin Detection Reagent by using a microplate reader EnSpire PerkinElmer (Waltham, MA, USA). Both reagents (NADPH Regeneration System and Luciferin Detection Reagent) were purchased from Promega (Madison, WI, USA).

The test system of series [2] is Male CD1 mice. The series can be described thus: Spontaneous locomotor activity of mice. The conditions noted are these: i.p.; for Ambulation Scores ± SEM: 60 min, n = 5; for effect on spontaneous locomotor activity in words: all tested doses. It is filed as in vivo. On the procedure:
Mice were placed separately into activity cages for an acclimatization period of 30 min, then they were injected i.p. with compound 15 (0.5, 1, and 3 mg/kg) or compound 18 (0.05, 0.1, 0.5, 1, and 3 mg/kg, respectively. After a further 30 min, they were injected with saline (10 mL/kg). From this point on, the ambulation scores were measured for 60 min. The data are presented as mean ± SEM, n = 5 mice per group. Data were analyzed with one-way ANOVA and Dunnett’s post-hoc. 15: F(3,16) = 1.225, p = 0.333; 18: F(5,24) = 0.791, p = 0.567.
(§1) Animals. Male CD1 mice (Charles River, Germany) weighing 20–25 g at the time of arrival were used in behavioral experiments. Animals were kept under standard laboratory conditions (12:12 light: dark cycle, 22 ± 2 °C) with free access to food and water. Animal welfare has been regularly controlled by a veterinarian and animal welfare committee. After two weeks of acclimatization and handling, the experiments began. Experimental groups consisted of four to 10 animals, depending on the procedure. Drugs were administered intraperitoneally (i.p.) at a volume of 10 mL/kg. Experimental assessments were performed by an observer who was blinded to the treatment conditions. All procedures were conducted in accordance with the European Communities Council Directive of 22 September 2010 (2010/63/EU) and Polish legislation acts concerning animal experimentation and were approved by the II Local Ethics Committee by the Maj Institute of Pharmacology, Polish Academy of Sciences in Krakow (272/2019).
(§2) Drugs. MK-801 was purchased from Tocris Bioscience, Bristol, UK. MK-801 was dissolved in 0.9% NaCl. Compounds 15 and 18 were dissolved in 0.9% NaCl. All compounds were administered intraperitoneally (i.p.) in a volume of 10 mL/kg. Vehicle-treated animals received appropriate solvents. Vehicle was administered to animals in any case when drug administration was omitted (e.g., control or MK-801-treated groups).
The locomotor activity was recorded individually for each animal in the OPTO-M3 locomotor activity cages described above. Each cage was surrounded with an array of photocell beams. […] Mice were placed separately into activity cages for an acclimatization period of 30 min, then were injected i.p. with compound 15 (0.5, 1, 3 mg/kg) compound 18 (0.05, 0.1, 0.5, 1, 3 mg/kg. After a further 30 min, they were injected with saline (10 mL/kg). From this point on, the ambulation scores were measured for 60 min.

Series [3] deals with Male CD1 mice. Description: MK-801-induced hyperactivity in mice. Type of series: in vivo. As to conditions: i.p.; for reversal of MK-801-elevated activity: MK-801 0.35 mg/kg, 15: 0.5, 1, 3 mg/kg, 18: 0.05-3 mg/kg. As to the method:
as §1, §2
The locomotor activity was recorded individually for each animal in locomotor activity cages (according to Rorick-Kehn et al., 2007a,b), with modifications (Wieronska et al., 2012). The mice were placed individually into activity cages (13 × 23 × 15 cm; Opto-M3; Columbus Instruments) for an acclimatization period of 30 min; then they were injected i.p. with compound 15 (0.5, 1, 3 mg/kg) or compound 18 (0.05, 0.1, 0.5, 1, 3 mg/kg) and placed again in the same cages. After 30 min, all of the mice were injected i.p. with MK-801 at 0.35 mg/kg and once again placed in the same cage. From then on, the ambulation scores were counted for 60 min. All of the groups were compared with the MK-801 control group. […]

Series [4] addresses T1, D2R. The series can be described thus: Radioligand binding assay, [3H]-raclopride displacement.

Usually Kb stands for the equilibrium dissociation constant of an antagonist, usually derived from a functional assay. In general, EC50 refers to the midpoint of the concentration-response curve.

Structures are written as SMILES. Where two headings read alike, the source gives them in different places.

T1 sequence (P14416 whole entry): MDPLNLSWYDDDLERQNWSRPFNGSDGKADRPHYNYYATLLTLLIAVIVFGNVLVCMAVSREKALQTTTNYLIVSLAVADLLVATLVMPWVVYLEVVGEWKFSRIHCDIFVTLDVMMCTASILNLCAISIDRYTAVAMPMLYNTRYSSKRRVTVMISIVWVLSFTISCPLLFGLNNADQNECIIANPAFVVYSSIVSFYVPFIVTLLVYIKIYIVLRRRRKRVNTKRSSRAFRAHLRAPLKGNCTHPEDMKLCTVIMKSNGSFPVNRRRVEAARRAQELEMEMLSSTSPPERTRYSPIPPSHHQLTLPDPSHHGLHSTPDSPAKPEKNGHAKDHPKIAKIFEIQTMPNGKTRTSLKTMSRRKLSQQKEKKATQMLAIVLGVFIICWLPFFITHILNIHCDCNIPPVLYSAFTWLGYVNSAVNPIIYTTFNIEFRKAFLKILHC
T2 sequence (P08684 whole entry): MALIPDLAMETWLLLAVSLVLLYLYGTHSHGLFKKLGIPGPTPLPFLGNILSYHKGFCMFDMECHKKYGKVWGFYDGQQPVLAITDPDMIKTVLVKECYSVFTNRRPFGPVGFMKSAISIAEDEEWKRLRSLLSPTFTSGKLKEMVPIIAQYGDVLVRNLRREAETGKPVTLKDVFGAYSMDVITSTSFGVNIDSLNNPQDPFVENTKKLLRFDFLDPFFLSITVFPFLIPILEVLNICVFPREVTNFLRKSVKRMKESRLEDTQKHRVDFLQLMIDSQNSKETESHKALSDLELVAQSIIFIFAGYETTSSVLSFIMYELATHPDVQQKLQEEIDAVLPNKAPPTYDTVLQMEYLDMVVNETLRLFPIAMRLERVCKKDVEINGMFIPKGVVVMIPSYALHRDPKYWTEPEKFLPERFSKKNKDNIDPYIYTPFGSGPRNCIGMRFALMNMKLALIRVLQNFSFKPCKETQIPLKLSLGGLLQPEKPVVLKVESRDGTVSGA
5-HT2AR, sequence (P28223 whole entry): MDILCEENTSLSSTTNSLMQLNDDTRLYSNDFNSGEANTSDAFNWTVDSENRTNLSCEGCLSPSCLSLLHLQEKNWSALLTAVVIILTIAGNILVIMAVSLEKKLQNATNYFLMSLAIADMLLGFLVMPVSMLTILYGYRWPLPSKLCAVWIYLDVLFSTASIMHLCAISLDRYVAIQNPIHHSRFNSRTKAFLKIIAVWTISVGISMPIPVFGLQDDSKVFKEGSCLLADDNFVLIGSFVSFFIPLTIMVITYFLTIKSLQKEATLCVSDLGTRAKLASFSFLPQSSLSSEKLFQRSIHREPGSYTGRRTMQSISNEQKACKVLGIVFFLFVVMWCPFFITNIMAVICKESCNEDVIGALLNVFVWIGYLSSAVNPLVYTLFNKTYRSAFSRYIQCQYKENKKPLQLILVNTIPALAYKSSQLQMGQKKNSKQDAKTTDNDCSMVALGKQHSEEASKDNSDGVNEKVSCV

In the case of `Brc1ccc2c(CNCCc3c[nH]c4ccccc34)c[nH]c2c1` [Compound 15], the Ki is 4070 nM at 5-HT2AR (read-out: pKi 5-HT2A (converted)); 290 nM at D2R [4] (Ki D2, Figure 8); 288 nM at D2R [4] (pKi D2, Table 1). Also, the Kb at D2R [1] (antagonistic mode, 100 nM quinpirole, read-out: D2 Kb) was 109 nM. Also, on D2R [1] (read-out: EC50 (D2 receptor, antagonistic function)), the EC50 was determined as 109 nM. Besides, the “effect on CYP3A4 activity” value at CYP3A4 is on record as “only slightly inhibited”. The entries for the “Ambulation Scores ± SEM” value in the series on Male CD1 mice [2] (0.5 mg/kg), in the series on Male CD1 mice [2] (1 mg/kg) and with Male CD1 mice [2] (3 mg/kg) were 134.9 ± 11.13, 124.7 ± 21.75 and 91.8 ± 24.61, respectively. Besides, the “effect on spontaneous locomotor activity in words” value in the series with Male CD1 mice [2] was “did not affect the locomotor activity of mice”. In the series with Male CD1 mice [3] (3 mg/kg), the “exacerbation of MK-801 hyperactivity” value is “not statistically significant”. In addition, the “reversal of MK-801-elevated activity” value in the series on Male CD1 mice [3] was “did not reverse the locomotor activity elevated by the administration of MK-801”.
Turning to `Brc1cccc2c(CNCCc3c[nH]c4ccccc34)c[nH]c12` [Compound 18], the Ki on 5-HT2AR (pKi 5-HT2A) was 3980 nM; at D2R [4] (Ki D2, Figure 8) it was 55 nM; on D2R [4] (pKi D2, Table 1) it was 55 nM. The compound also came in with a Kb at D2R [1] of 167 nM. Besides, the “effect on CYP3A4 activity” value on CYP3A4 was “only slightly inhibited”. The “Ambulation Scores ± SEM” value is reported as 113.6 ± 34.00 with Male CD1 mice [2] (0.05 mg/kg); 131.8 ± 19.50 with Male CD1 mice [2] (0.1 mg/kg); 116.7 ± 13.23 in the series on Male CD1 mice [2] (0.5 mg/kg); 85.31 ± 15.86 with Male CD1 mice [2] (1 mg/kg); 87.79 ± 20.89 in the series with Male CD1 mice [2] (3 mg/kg). The “effect on spontaneous locomotor activity in words” value in the series on Male CD1 mice [2] is recorded as “did not influence the spontaneous locomotor activity of mice”. For the same compound, the “reversal of MK-801-elevated activity” value with Male CD1 mice [3] is listed as “did not reverse the locomotor activity elevated by the administration of MK-801”.
